Results taken from US20130109580A1, “High-Affinity Peptide Probes for Tumor Biomarker, GRP-78, and Screening Method Thereof” (ATOMIC ENERGY CONCIL-INSTITUTE OF NUCLEAR ENERGY RESEARCH, priority 2011, published 2013).

Legend:
GRP-78 [1] = target: T1, GRP-78 (Homo sapiens, UniProt P11021); assay: ELISA analysis of phage affinity to GRP-78; format: binding; details: Maxisorb 96-well plate coated with GRP-78; CPS minus background without GRP-78; serially diluted phages
Description: (g) In the end, enzyme-linked immunosorbent assay (ELISA) analysis is processed with the phages 11 to obtain high-affinity amino acid sequences of peptides.
In FIG. 2, after three times of the panning process, luminescent antibodies 12 (HRP-conjugated M13-phage g8p monoclone antibody) against the phages 11 are added to be washed with the TBST buffer having 0.5% Tween-20. At last, an enhanced chemiluminescence (ECL) substrate is added for developing.
Please further refer to FIG. 4 and FIG. 5, which are a view showing a calculating process and a result of an ELISA analysis. As shown in the figures, the four sequences selected from the five sequences are numbered as phage#01, phage#03, phage#13 and phage#15 for comparing their affinities to GRP-78. An ELISA analysis is processed after values of densities of the phages are deducted by background values at the same densities. In FIG. 3, Maxisorb 96-well plate is used. Row 11 and row 12 are not used. A1˜A10, C1˜C10, E1˜E10 and G1˜G10 are coated with GRP-78. 80 wells of A1˜A10, B1˜B10, C1˜C10, D1˜D10, E1˜E10, F1˜F10, G1˜G10, H1˜H10 and […] along with 40 clean wells are all blocked. On diluting the phages, the plate containing the 80 blocked wells along with the 40 blocked clean wells is used. The first to the tenth wells in each row contain phages sequentially diluted. […] A number of counts per second (CPS) is obtained by using an ELISA reader. […]

GRP-78 [2] = target: T1, GRP-78; assay: Phage display panning against GRP-78 with DNA sequencing of picked phages; format: binding; details: 24 independent phages picked after panning
Text: (a) A desired target protein 10 is fixed at bottom of a container added with selected phages 11 from phage display library.
(b) Each phage 11 is bound to the target protein 10 by using amino acid sequences contained in the phage 11.
(c) A TBST buffer having 0.1% Tween-20 is obtained for processing washing. By using Tween-20 as a surfactant, unspecific bindings are destroyed.
(d) The phages 11 which are bound to the target protein 10 are eluted under a weak acid status to be collected.
(e) after amplifying the collected phages 11 bound to the target protein 10, a panning process of binding, washing and eluting as in step (b) to step (d) is run for two times. For better screening efficiency, a density of Tween-20 is increased after each time of the panning process. It is because that the unspecific bindings are not destroyed with a too low density of Tween-20; yet a too high density of Tween-20 not only destroys the specific bindings between the phages 11 and the target protein 10 but also destroys integrities of proteins in the phages 11.
(f) Then, a quantification process is run with the screened phages 11 for estimating screening efficiency. DNA sequencing is then processed with the phages 11 to obtain actual sequences of 7 amino acids deposed on g3 protein (g3p). […]

T1 sequence (P11021 19-654, species assumed): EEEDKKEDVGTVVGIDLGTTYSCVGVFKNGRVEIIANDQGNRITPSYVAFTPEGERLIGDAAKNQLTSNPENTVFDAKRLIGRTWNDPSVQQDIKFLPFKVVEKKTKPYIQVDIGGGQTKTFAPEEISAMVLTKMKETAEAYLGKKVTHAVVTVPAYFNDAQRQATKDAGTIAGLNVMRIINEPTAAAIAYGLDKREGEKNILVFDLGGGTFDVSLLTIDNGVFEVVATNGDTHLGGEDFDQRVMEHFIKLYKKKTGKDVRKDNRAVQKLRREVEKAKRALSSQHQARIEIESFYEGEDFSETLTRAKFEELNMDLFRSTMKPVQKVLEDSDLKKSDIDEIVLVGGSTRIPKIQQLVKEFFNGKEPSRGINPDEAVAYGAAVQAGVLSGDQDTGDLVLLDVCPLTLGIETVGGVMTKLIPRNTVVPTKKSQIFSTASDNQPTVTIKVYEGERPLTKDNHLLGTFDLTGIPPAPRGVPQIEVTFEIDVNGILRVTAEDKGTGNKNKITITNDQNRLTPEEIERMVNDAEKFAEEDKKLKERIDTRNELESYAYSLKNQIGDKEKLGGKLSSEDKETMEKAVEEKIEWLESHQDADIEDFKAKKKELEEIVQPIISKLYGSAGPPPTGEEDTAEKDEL

affinity / binding force to GRP-78 (ELISA curve, pure CPS vs phage density) (GRP-78 [1])	occurrence of the sequence among picked phages (GRP-78 [2])	Substance
strong binding forces	–	KCCY
–	very few occurrences	KLWVIPQ [ruled out for later analysis]
strong binding forces	–	KVW
–	very few occurrences	YSLRMDF
